Source: paper PMC5442318, “Hundreds of dual-stage antimalarial molecules discovered by a functional gametocyte screen” (Nature Communications, 2017)
Where two headings read alike, the source gives them in different places.

Assays:
[1] = system: P. falciparum female gametes; experiment: Pf FGAA with compounds added 30 min after triggering gametocyte activation (gamete-targeting); assay type: cell-based, Plasmodium falciparum NF54; settings: 0h incubation time
[2] = system: P. falciparum asexual blood stages; settings: cited from earlier work; for IC50: read-out: Pf Asexual blood stages XC50
HepG2 cells = experiment: HepG2 cytotoxicity assay; assay type: cell-based
In short: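 Steps: equilibrate plates and detection reagent at room temperature (30 min); dispense CellTiter-Glo; allow 10 min at room temperature; record luminescence.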

[3] = system: P. falciparum stage V female gametocytes; experiment: P. falciparum female gametocyte activation assay (Pf FGAA), 24 h or 48 h preincubation, Pfs25 expression readout; assay type: cell-based, Plasmodium falciparum NF54; design: key to Biological profile: 49 compounds that were only active with a 48 h exposure (designated as slow-acting); 29 compounds additionally showed activity with only 24 h exposure (designated as fast-acting); when the compounds were added 30 min after triggering gametocyte activation, 12 compounds prevented cell surface expression of Pfs25 (designated as gamete-targeting); settings: for Pf FGAA classification: SLOW / FAST / GAMETE from activity at 48h, 24h, 0h incubation
In short: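 Purified stage V gametocytes from P. falciparum NF54 gametocyte cultures were exposed to compounds for 24 h or 48 h at 37 °C under 3% O2/5% CO2, then activated by temperature drop plus xanthurenic acid. Activated females were stained with Cy3-anti-Pfs25 (0.5 μg ml^−1) for 24 h at 26 °C and counted by high-content imaging; pIC50 by nonlinear regression.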

[4] = system: P. falciparum stages IV–V gametocytes; experiment: Gametocytocidal ATP-depletion assay (gametocyte ATP bioluminescence); assay type: cell-based, Plasmodium falciparum; settings: for inhibition at 2 µM: Plasmodium falciparum, mean
In short: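 Purified stage IV–V gametocytes (12,500/well) incubated with compound for 48 h at 37 °C under 3% O2/5% CO2. ATP measured by BacTiter-Glo luminescence as a viability surrogate; hits tested at 2 μM single concentration.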

[5] = TCAMS asexual blood stage data, ref 1 (Gamo, F. J. et al., Nature 465, 305-310, 2010)
[6] = TCAMS data, ref 1 (Gamo, F. J. et al., Nature 465, 305-310, 2010)
[7] = 24h incubation time, read-out: Pf FGAA IC50 (µM) 24h
[8] = P. falciparum female gametocytes, mean, read-out: Gametocytes mean Pf FGAA IC50
[9] = TCAMS data, ref 1 (Gamo et al., 2010)
[10] = Plasmodium falciparum, 24h incubation time, read-out: Pf FGAA IC50 (µM) 24h
[11] = Plasmodium falciparum, mean, read-out: Gametocytes mean Pf FGAA IC50
[12] = mean, read-out: Gametocytes mean Pf FGAA IC50

Cc1ccc2c(c1)c(C1CCN(C(=O)c3ccc([N+](=O)[O-])o3)CC1)cn2C [TCMDC-124787]
IC50 [1]: > 20 µM
IC50 [2, 5]: 750 nM
Pf Asexual stages XC50 [2, 6]: 750 nM
HepG2 cells mean TOX50 (HepG2 cells; HepG2 cells): 28.85 µM
IC50 [3, 7]: 0.88 µM
IC50 [3, 8]: 2.12 µM
Pf FGAA classification [3]: FAST
Gametocytes mean ATP inhibition at 2µM [4]: -6.61%

Cc1ccc(C(C(=O)Nc2ccc(N3CCNCC3)c(Cl)c2)c2ccccc2)cc1 (stereo not shown) [TCMDC-134292]
IC50 [1]: > 20 µM
IC50 [2, 5]: 840 nM
Pf Asexual stages XC50 [2, 6]: 840 nM
HepG2 cells mean TOX50 (HepG2 cells; HepG2 cells): 11.89 µM
IC50 [3, 7]: 17 µM
IC50 [3, 8]: 0.66 µM
Pf FGAA classification [3]: SLOW
Gametocytes mean ATP inhibition at 2µM [4]: 19.42%

Cc1ccc(S(=O)(=O)N(CCCNCc2cccc(O)c2)c2ccccc2)cc1 [TCMDC-138022]
IC50 ([1]; Plasmodium falciparum): > 20 µM
IC50 [2, 9]: 770 nM
Pf Asexual stages XC50 [2, 6]: 770 nM
Selectivity ratio (HepG2 cells; HepG2 TOX50 vs Pf FGAA IC50): 39.21
HepG2 cells mean TOX50 (HepG2 cells): 44.67 µM
IC50 [3, 10]: > 20 µM
IC50 [3, 11]: 1.14 µM
Pf FGAA classification [3]: SLOW
inhibition at 2 µM [4]: 32%

O=C(NCC1CCN(Cc2cccc(C(F)(F)F)c2)C1)c1cc(-c2cccc(Cl)c2)cs1.O=C(O)C(F)(F)F (stereo not shown) [TCMDC-134485]
IC50 [1]: > 20 µM
IC50 [2, 5]: 800 nM
Pf Asexual stages XC50 [2, 6]: 800 nM
HepG2 cells mean TOX50 (HepG2 cells; HepG2 cells): 16.03 µM
IC50 [3, 7]: 12 µM
IC50 [3, 8]: 0.89 µM
Pf FGAA classification [3]: SLOW
Gametocytes mean ATP inhibition at 2µM [4]: 2.16%

CC(C)N1CCN(C(CN2CCN(CCCOc3ccccc3-c3ccccc3)CC2)c2ccc(F)cc2)CC1.Cl (stereo not shown) [TCMDC-135499]
IC50 [1]: 12.3 µM
IC50 [2, 5]: 790 nM
Pf Asexual stages XC50 [2, 6]: 790 nM
HepG2 cells mean TOX50 (HepG2 cells; HepG2 cells): 4.32 µM
IC50 [3, 7]: 5.74 µM
IC50 [3, 8]: 1.41 µM
Pf FGAA classification [3]: SLOW
Gametocytes mean ATP inhibition at 2µM [4]: -15.92%

c1ccn2c(Sc3ncnc4sccc34)ncc2c1 [TCMDC-124602]
IC50 [1]: 14.4 µM
IC50 [2, 5]: 660 nM
Pf Asexual stages XC50 [2, 6]: 660 nM
HepG2 cells TOX50 (HepG2 cells; HepG2 cells): >100 µM
HepG2 cells mean TOX50 (HepG2 cells; HepG2 cells): >100 µM
IC50 [3, 7]: > 20 µM
IC50 [3, 8]: 0.24 µM
Pf FGAA classification [3]: SLOW
Gametocytes mean ATP inhibition at 2µM [4]: 12.16%

CCc1cc2c(Sc3nnc(N)s3)ncnc2s1 [TCMDC-123993]
IC50 [1]: > 20 µM
IC50 [2, 5]: 660 nM
Pf Asexual stages XC50 [2, 6]: 660 nM
HepG2 cells mean TOX50 (HepG2 cells; HepG2 cells): 32.30 µM
IC50 [3, 7]: 0.77 µM
IC50 [3, 8]: 0.73 µM
Pf FGAA classification [3]: FAST
Gametocytes mean ATP inhibition at 2µM [4]: 23.86%

CN(C)c1ccc(-c2csc(C(=O)NCC3CCN(Cc4cccc(C(F)(F)F)c4)C3)c2)cc1.O=C(O)C(F)(F)F (stereo not shown) [TCMDC-134486]
IC50 [1]: > 20 µM
IC50 [2, 5]: 840 nM
Pf Asexual stages XC50 [2, 6]: 840 nM
HepG2 cells mean TOX50 (HepG2 cells; HepG2 cells): 8.18 µM
IC50 [3, 7]: 2.56 µM
IC50 [3, 8]: 1.56 µM
Pf FGAA classification [3]: SLOW
Gametocytes mean ATP inhibition at 2µM [4]: -14.11%

CNCCCNCc1ccc(-c2ccc(F)c(Cl)c2)o1.Cl [TCMDC-125237]
IC50 [1]: > 20 µM
IC50 [2, 5]: 750 nM
Pf Asexual stages XC50 [2, 6]: 750 nM
HepG2 cells mean TOX50 (HepG2 cells; HepG2 cells): 10.60 µM
IC50 [3, 7]: 1.57 µM
IC50 [3, 8]: 1.87 µM
Pf FGAA classification [3]: FAST
Gametocytes mean ATP inhibition at 2µM [4]: -1.51%

C[C@H](Cc1ccc(OCCCCCCOc2ccc(C[C@@H](C)N[C@H](C)c3ccccc3)cc2)cc1)NC[C@H](O)c1cccc(Cl)c1.Cl [TCMDC-131564]
IC50 [1]: > 20 µM
IC50 [2, 5]: 240 nM
Pf Asexual stages XC50 [2, 6]: 240 nM
HepG2 cells mean TOX50 (HepG2 cells; HepG2 cells): 4.28 µM
IC50 [3, 7]: 2.89 µM
IC50 [3, 8]: 0.72 µM
Pf FGAA classification [3]: SLOW
Gametocytes mean ATP inhibition at 2µM [4]: 38.50%

COc1cc2nc(Nc3ccc4c(ccn4Cc4ccccc4)c3)nc(Nc3ccc4c(ccn4Cc4ccccc4)c3)c2cc1OC [TCMDC-138237]
IC50 [1]: > 20 µM
IC50 [2, 9]: 650 nM
Pf Asexual stages XC50 [2, 6]: 650 nM
HepG2 cells mean TOX50 (HepG2 cells): 14.13 µM
IC50 [3, 7]: 5.44 µM
Pf FGAA classification [3]: SLOW
IC50 [3, 12]: 1.58 µM
Gametocytes mean ATP inhibition at 2µM (%) [4]: 12.64%

Cc1ccc(-n2c(Sc3ncnc4sccc34)nnc2N2CCCC2)cc1 [TCMDC-125247]
IC50 [1]: > 20 µM
IC50 [2, 5]: 260 nM
Pf Asexual stages XC50 [2, 6]: 260 nM
HepG2 cells mean TOX50 (HepG2 cells; HepG2 cells): 89.13 µM
IC50 [3, 7]: > 20 µM
IC50 [3, 8]: 0.49 µM
Pf FGAA classification [3]: SLOW
Gametocytes mean ATP inhibition at 2µM [4]: 22.13%

CC(Cc1ccc(NC(=O)c2ccc(CC(C)NCc3ccc(Cl)cc3)cc2)cc1)NCCc1cccc(Cl)c1 (stereo not shown) [TCMDC-139810]
IC50 [1]: > 20 µM
IC50 [2, 9]: 450 nM
Pf Asexual stages XC50 [2, 6]: 450 nM
HepG2 cells mean TOX50 (HepG2 cells): 4.03 µM
IC50 [3, 7]: 9.9 µM
Pf FGAA classification [3]: SLOW
IC50 [3, 12]: 0.86 µM
Gametocytes mean ATP inhibition at 2µM (%) [4]: -5.12%

CN(C)CCCNCc1cn(S(=O)(=O)c2ccccc2Cl)c2ccccc12 [TCMDC-136302]
IC50 ([1]; Plasmodium falciparum): > 20 µM
IC50 [2, 9]: 1070 nM
Pf Asexual stages XC50 [2, 6]: 350 nM
Selectivity ratio (HepG2 cells; HepG2 TOX50 vs Pf FGAA IC50): 6.39
HepG2 cells mean TOX50 (HepG2 cells): 11.78 µM
IC50 [3, 10]: 0.51 µM
IC50 [3, 11]: 1.84 µM
Pf FGAA classification [3]: FAST
inhibition at 2 µM [4]: 3.27%

COc1ccc(NC(=O)Nc2ccc(Nc3nc(C)cc(N4CCCC4)n3)cc2)cc1 [TCMDC-124958]
IC50 ([1]; Plasmodium falciparum): 10.1 µM
IC50 [2, 5]: 140 nM
Pf Asexual stages XC50 [2, 6]: 140 nM
Selectivity ratio (HepG2 cells; HepG2 TOX50 versus Pf FGAA IC50): 11.05
HepG2 cells mean TOX50 (HepG2 cells; HepG2 cells): 11.89 µM
IC50 [3, 10]: 2.16 µM
IC50 ([3]; Plasmodium falciparum, P. falciparum female gametocytes, mean, read-out: Gametocytes mean Pf FGAA IC50): 1.08 µM
Pf FGAA classification [3]: FAST
inhibition at 2 µM [4]: -9.01%

N#Cc1ccc(Cn2ccc3c4c(N)nc(N)nc4ccc32)cc1 [TCMDC-137820]
IC50 [1]: 8.15 µM
IC50 [2, 9]: 3 nM
Pf Asexual stages XC50 [2, 6]: 3 nM
HepG2 cells TOX50 (HepG2 cells; HepG2 cells): <0.0017 µM
HepG2 cells mean TOX50 (HepG2 cells): <0.0017 µM
IC50 [3, 7]: 1.91 µM
Biological profile ([3]; Pf FGAA with 48 h, 24 h or post-activation addition, active = IC50 below 2 μM): fast-acting
Pf FGAA classification [3]: FAST
IC50 ([3]; stage V gametocytes, 48 h exposure, read-out: PfFGAA IC50): 1.06 µM
Gametocytes mean ATP inhibition at 2µM (%) [4]: -6.11%

O=C(Nc1nc(-c2ccccn2)cs1)c1ccc(S(=O)(=O)N2CCc3ccccc32)cc1 [TCMDC-125432]
IC50 [1]: > 20 µM
IC50 [2, 5]: 830 nM
Pf Asexual stages XC50 [2, 6]: 830 nM
HepG2 cells mean TOX50 (HepG2 cells; HepG2 cells): 29.22 µM
IC50 [3, 7]: 0.7 µM
IC50 [3, 8]: 1.07 µM
Pf FGAA classification [3]: FAST
Gametocytes mean ATP inhibition at 2µM [4]: -8.57%
